Measured values as given in US20260265251A1 (priority 2023, published 2026).

Tested on: A2058 cells
Assay: A2058 cell proliferation assay
Type: cell-based
Settings: Homo sapiens, 96 hours, CellTiter-Glo

SMILES | IC50 [nM]
O=c1[nH]c2cc3cc(-c4cn(C(F)F)nc4Cl)c(Cl)cc3nc2[nH]1 [Example 89, 6-chloro-7-(3-chloro-1-(difluoromethyl)-1H-pyrazol-4-yl)-1,3-dihydro-2H-imidazo[4,5-b]quinolin-2-one] | 18.8
O=c1[nH]c2cc3c(nc2[nH]1)CCN(c1ccc(F)c(C(F)(F)F)n1)C3 [Example 61, 7-(5-fluoro-6-(trifluoromethyl)pyridin-2-yl)-1,3,5,6,7,8-hexahydro-2H-imidazo[4,5-b][1,6]naphthyridin-2-one] | 1.9
O=c1[nH]c2cc3c(nc2[nH]1)CCC(c1cn(C(F)F)nc1Cl)C3 (stereo not shown) [Example 63, 7-(3-chloro-1-(difluoromethyl)-1H-pyrazol-4-yl)-1,3,5,6,7,8-hexahydro-2H-imidazo[4,5-b]quinolin-2-one] | 8.1
O=c1[nH]c2cc3c(nc2[nH]1)CCC(c1ccc(F)cc1)C3 (stereo not shown) [Example 57, 7-(4-fluorophenyl)-1,3,5,6,7,8-hexahydro-2H-imidazo[4,5-b]quinolin-2-one] | 32.2
CNc1ccc(-c2ccc3nc4[nH]c(=O)[nH]c4cc3c2)c(Cl)n1 [Example 40, 7-(2-chloro-6-(methylamino)pyridin-3-yl)-1,3-dihydro-2H-imidazo[4,5-b]quinolin-2-one] | 8

Tested on: SK-MEL-3 cells
Assay: SK-MEL-3 cell proliferation assay
Type: cell-based
Settings: Homo sapiens, SK-MEL3; SK-MEL-3 cells, 72 hours, CellTiter-Glo; read-out: SK-MEL-3 IC50

SMILES | IC50 [nM]
Cc1ccc(-c2ccc3nc4[nH]c(=O)[nH]c4cc3c2C(F)(F)F)cc1 [Example 79, 7-(p-tolyl)-8-(trifluoromethyl)-1,3-dihydro-2H-imidazo[4,5-b]quinolin-2-one] | 0.4
Cc1ccc(-c2ccc3nc4c(cc3c2Cl)C(=O)C(=O)N4)cc1 [Example 95, 5-chloro-6-(p-tolyl)-1H-pyrrolo[2,3-b]quinolin-2,3-dione] | 55.5
COc1c(-c2ccc(F)cc2Cl)ccc2nc3[nH]c(=O)[nH]c3cc12 [Example 85, 7-(2-chloro-4-fluorophenyl)-8-methoxy-1,3-dihydro-2H-imidazo[4,5-b]quinolin-2-one] | 0.3
Cc1ccc(-c2cc3cc4[nH]c(=O)[nH]c4nc3cc2Cl)cc1 [Example 69, 6-chloro-7-(p-tolyl)-1,3-dihydro-2H-imidazo[4,5-b]quinolin-2-one] | 9.7
COc1ccc(-c2ccc3nc4[nH]c(=O)[nH]c4cc3c2Cl)cn1 [Example 72, 8-chloro-7-(6-methoxypyridin-3-yl)-1,3-dihydro-2H-imidazo[4,5-b]quinolin-2-one] | 1
Cc1ccc(-c2ccc3nc4[nH]c(=O)[nH]c4cc3c2Cl)nc1 [Example 70, 8-chloro-7-(5-methylpyridin-2-yl)-1,3-dihydro-2H-imidazo[4,5-b]quinolin-2-one] | 2.9
O=c1[nH]c2cc3c(Cl)c(N4CCC5(CC4)CC5)ccc3nc2[nH]1 [Example 81, 8-chloro-7-(6-azaspiro[2.5]octan-6-yl)-1,3-dihydro-2H-imidazo[4,5-b]quinolin-2-one] | 9.7
Nc1cc(-c2ccc3nc4[nH]c(=O)[nH]c4cc3c2)ccn1 [Example 26, 7-(2-aminopyridin-4-yl)-1,3-dihydro-2H-imidazo[4,5-b]quinolin-2-one] | 74.6
Nc1ccc(-c2ccc3nc4[nH]c(=O)[nH]c4cc3c2)c(Cl)n1 [Example 19, 7-(6-amino-2-chloropyridin-3-yl)-1,3-dihydro-2H-imidazo[4,5-b]quinolin-2-one] | 1.7
O=c1[nH]c2cc3c(nc2[nH]1)CCN(c1cccc(F)c1)C3 [Example 49, 7-(3-fluorophenyl)-1,3,5,6,7,8-hexahydro-2H-imidazo[4,5-b][1,6]naphthyridin-2-one] | 1.8
COc1c(-c2ccc(F)cc2)ccc2nc3[nH]c(=O)[nH]c3cc12 [Example 78, 8-(methoxy)-7-(4-fluorophenyl)-1,3-dihydro-2H-imidazo[4,5-b]quinolin-2-one] | 0.9
Cc1ccc(-c2ccc3nc4[nH]c(=O)oc4cc3c2Cl)cc1 [Example 94, 8-chloro-7-(p-tolyl)oxazolo[4,5-b]quinolin-2(3H)-one] | 258
N#Cc1ccc(-c2ccc3nc4[nH]c(=O)[nH]c4cc3c2Cl)cc1 [Example 75, 8-chloro-7-(4-cyanophenyl)-1,3-dihydro-2H-imidazo[4,5-b]quinolin-2-one] | 0.5
O=c1[nH]c2cc3c(Cl)c(-n4ccc(C(F)(F)F)n4)ccc3nc2[nH]1 [Example 90, 8-chloro-7-(3-(trifluoromethyl)-1H-pyrazol-1-yl)-1,3-dihydro-2H-imidazo[4,5-b]quinolin-2-one] | 3.4
Cc1ccc(-c2ccc3nc4[nH]c(=O)[nH]c4cc3c2)c(Cl)c1 [Example 25, 7-(2-chloro-4-methylophenyl)-1,3-dihydro-2H-imidazo[4,5-b]quinolin-2-one] | 2.9
O=c1[nH]c2cc3c(nc2[nH]1)CCN(c1ccc(C(F)F)cc1Cl)C3 [Example 46, 7-(2-chloro-4-(difluoromethyl)phenyl)-1,3,5,6,7,8-hexahydro-2H-imidazo[4,5-b][1,6]naphthyridin-2-one] | 1.2
O=c1[nH]c2cc3c(Cl)c(-c4ccccc4)ccc3nc2[nH]1 [Example 65, 8-chloro-7-phenyl-1,3-dihydro-2H-imidazo[4,5-b]quinolin-2-one] | 0.8
O=c1[nH]c2cc3cc(-c4c(Cl)cnn4C(F)F)ccc3nc2[nH]1 [Example 16, 7-(4-chloro-1-(difluoromethyl)-1H-pyrazol-5-yl)-1,3-dihydro-2H-imidazo[4,5-b]quinolin-2-one] | 1.6
Cc1cc(F)ccc1-c1ccc2nc3[nH]c(=O)[nH]c3cc2c1 [Example 4, 7-(4-fluoro-2-methylphenyl)-1,3-dihydro-2H-imidazo[4,5-b]quinolin-2-one] | 1.7
Cn1c(=O)[nH]c2nc3ccc(-c4ccc(F)cc4)c(Cl)c3cc21 [Example 93, 8-chloro-7-(4-fluorophenyl)-1-methyl-1,3-dihydro-2H-imidazo[4,5-b]quinolin-2-one] | 8.7
O=c1[nH]c2cc3cc(-c4cnn(C(F)(F)F)c4)ccc3nc2[nH]1 [Example 29, 7-(1-(trifluoromethyl)-1H-pyrazol-4-yl)-1,3-dihydro-2H-imidazo[4,5-b]quinolin-2-one] | 6.6
COc1ncc(N2CCc3nc4[nH]c(=O)[nH]c4cc3C2)cc1C(F)(F)F [Example 91, 7-(6-methoxy-5-(trifluoromethyl)pyridin-3-yl)-1,3,5,6,7,8-hexahydro-2H-imidazo[4,5-b][1,6]naphthyridin-2-one] | 281
O=c1[nH]c2cc3cc(-c4c(Cl)ncn4C(F)F)ccc3nc2[nH]1 [Example 38, 7-(4-chloro-1-(difluoromethyl)-1H-imidazol-5-yl)-1,3-dihydro-2H-imidazo[4,5-b]quinolin-2-one] | 4.7
N#Cc1cnc(N2CCc3nc4[nH]c(=O)[nH]c4cc3C2)c(Cl)c1 [Example 56, 7-(3-chloro-5-cyanopyridin-2-yl)-1,3,5,6,7,8-hexahydro-2H-imidazo[4,5-b][1,6]naphthyridin-2-one] | 10.6
COc1cc(Cl)c(-c2ccc3nc4[nH]c(=O)[nH]c4cc3c2)cn1 [Example 8, 7-(4-chloro-6-methoxypyridin-3-yl)-1,3-dihydro-2H-imidazo[4,5-b]quinolin-2-one] | 2.1
O=c1[nH]c2cc3cc(-c4ccc(F)cc4C(F)(F)F)ccc3nc2[nH]1 [Example 5, 7-(4-fluoro-2-(trifluoromethylphenyl))-1,3-dihydro-2H-imidazo[4,5-b]quinolin-2-one] | 2.8
